Data on seven molecules can be found in US20240124432A1, “HERBICIDAL COMPOUNDS” (SYNGENTA CROP PROTECTION AG, priority 2020, published 2024).

Molecules are shown by their SMILES.

Common to all, as to format: in vivo
The subject of assay [1] is AMAPA. The assay can be described thus: Pre-emergence biological efficacy. As to conditions: Amaranthus palmeri, 312 h, evaluated after 13 days, read-out: damage to plant (100=total damage to plant; 0=no damage to plant). A digest of the protocol: (§1)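 Seeds were sown in standard soil in pots, kept 1 day in a glasshouse (24/19 °C day/night, 16 h light), then sprayed with test compound formulated in acetone plus IF50 emulsifier mixture and diluted in 0.2% Genapol XO80 to the desired final dose. Damage was scored after 13 days (0–100).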

The subject of assay [2] is ECHCG. As to the kind of experiment: Pre-emergence biological efficacy. As to conditions: Echinochloa crus-galli, 312 h, evaluated after 13 days, read-out: damage to plant (100=total damage to plant; 0=no damage to plant). A digest of the protocol:
as §1

Assay [3] has as its system EPHHL. The assay can be described thus: Pre-emergence biological efficacy. Particulars: Euphorbia heterophylla, 312 h, evaluated after 13 days, read-out: damage to plant (100=total damage to plant; 0=no damage to plant). A digest of the protocol:
as §1

Assay [4] has as its system IPOHE. The assay can be described thus: Pre-emergence biological efficacy. As to conditions: Ipomoea hederacea, 312 h, evaluated after 13 days, read-out: damage to plant (100=total damage to plant; 0=no damage to plant). A digest of the protocol: as §1
In assay [5] the test system is LOLPE. The assay can be described thus: Pre-emergence biological efficacy. Particulars: Lolium perenne, 312 h, evaluated after 13 days, read-out: damage to plant (100=total damage to plant; 0=no damage to plant). A digest of the protocol:
as §1

For assay [6], the system named is SETFA. The assay can be described thus: Pre-emergence biological efficacy. As to conditions: Setaria faberi, 312 h, evaluated after 13 days, read-out: damage to plant (100=total damage to plant; 0=no damage to plant). A digest of the protocol:
as §1

For assay [7], the system named is AMAPA. The assay can be described thus: Post-emergence biological efficacy. As to conditions: Amaranthus palmeri, 312 h, evaluated after 13 days, read-out: damage to plant (100=total damage to plant; 0=no damage to plant). A digest of the protocol: (§2)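 Plants grown 14 days in glasshouse, then sprayed post-emergence with compound formulated in IF50 and diluted in 0.2% Genapol XO80 to the desired dose. Damage scored after 13 days on a 0–100 scale (100 = total damage).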

In a further assay the test system is CHEAL. As to the kind of experiment: Post-emergence biological efficacy. Particulars: Chenopodium album, 312 h, evaluated after 13 days, read-out: damage to plant (100=total damage to plant; 0=no damage to plant). A digest of the protocol:
as §2

A further assay has as its system DIGSA. As to the kind of experiment: Post-emergence biological efficacy. As to conditions: Digitaria sanguinalis, 312 h, evaluated after 13 days, read-out: damage to plant (100=total damage to plant; 0=no damage to plant). A digest of the protocol: as §2
Assay [8] relates to ECHCG. As to the kind of experiment: Post-emergence biological efficacy. Particulars: Echinochloa crus-galli, 312 h, evaluated after 13 days, read-out: damage to plant (100=total damage to plant; 0=no damage to plant). A digest of the protocol:
as §2

The test system of another assay is ELEIN. As to the kind of experiment: Post-emergence biological efficacy. As to conditions: 312 h, evaluated after 13 days, read-out: damage to plant (100=total damage to plant; 0=no damage to plant). A digest of the protocol:
as §2

The subject of assay [9] is EPHHL. The assay can be described thus: Post-emergence biological efficacy. As to conditions: Euphorbia heterophylla, 312 h, evaluated after 13 days, read-out: damage to plant (100=total damage to plant; 0=no damage to plant). A digest of the protocol:
as §2

The test system of assay [10] is IPOHE. As to the kind of experiment: Post-emergence biological efficacy. As to conditions: Ipomoea hederacea, 312 h, evaluated after 13 days, read-out: damage to plant (100=total damage to plant; 0=no damage to plant). A digest of the protocol:
as §2

The subject of assay [11] is LOLPE. As to the kind of experiment: Post-emergence biological efficacy. As to conditions: Lolium perenne, 312 h, evaluated after 13 days, read-out: damage to plant (100=total damage to plant; 0=no damage to plant). A digest of the protocol: as §2
For assay [12], the system named is SETFA. As to the kind of experiment: Post-emergence biological efficacy. Particulars: Setaria faberi, 312 h, evaluated after 13 days, read-out: damage to plant (100=total damage to plant; 0=no damage to plant). A digest of the protocol:
as §2

In the case of `CCOC(=O)C1(C)CC(c2cc(-c3ncc(C(F)(F)F)cc3Br)c(F)cc2Cl)=NO1` (stereo not drawn) [Compound 1-571, Ethyl 3-[5-[3-bromo-5-(trifluoromethyl)-2-pyridyl]-2-chloro-4-fluoro-phenyl]-5-methyl-4H-isoxazole-5-carboxylate], the pest or weed control at 250 g/ha in the assay with AMAPA [1] was 100%; with ECHCG [2], 10%; in the assay on EPHHL [3] it was 0%; in the assay on IPOHE [4], 0%; with LOLPE [5], 70%; in the assay with SETFA [6] it was 10%. Also, the pest or weed control at 250 g/ha with AMAPA [7] came out at 100%; in the assay with CHEAL, 100%; in the assay with DIGSA, 60%; in the assay on ECHCG [8], 30%; with ELEIN, 90%; in the assay on EPHHL [9] it was 100%. For the same molecule, the figures for the pest or weed control at 250 g/ha in the assay with IPOHE [10], in the assay with LOLPE [11] and in the assay on SETFA [12] were 70%, 90% and 90%, respectively.

On to `CCOC(=O)C1(C)CC(c2cc(-c3ncc(C(F)F)cc3Cl)c(F)cc2Cl)=NO1` (stereo not drawn) [Compound 1-583, Ethyl 3-[2-chloro-5-[3-chloro-5-(difluoromethyl)-2-pyridyl]-4-fluoro-phenyl]-5-methyl-4H-isoxazole-5-carboxylate], for which the pest or weed control at 250 g/ha was found to be 100% in the assay on AMAPA [1]; 90% in the assay with ECHCG [2]; 100% in the assay on EPHHL [3]; 60% in the assay with IPOHE [4]; 60% with LOLPE [5]; 90% in the assay on SETFA [6]. Further, the pest or weed control at 250 g/ha in the assay with AMAPA [7] was 100%; in the assay with CHEAL it was 100%; with DIGSA, 90%; with ECHCG [8], 100%; in the assay with ELEIN, 90%; in the assay with EPHHL [9], 100%. Further, the pest or weed control at 250 g/ha in the assay with IPOHE [10], with LOLPE [11] and with SETFA [12] was 100% in each case.

Consider `CCOC(=O)C1(C)CC(c2cc(-c3ncc(C(C)(F)F)cc3Cl)c(F)cc2Cl)=NO1` (stereo not drawn) [Compound 1-595, ethyl 3-[2-chloro-5-[3-chloro-5-(1,1-difluoroethyl)-2-pyridyl]-4-fluoro-phenyl]-5-methyl-4H-isoxazole-5-carboxylate], for which the pest or weed control at 250 g/ha in the assay on AMAPA [1] came to 100%; in the assay on ECHCG [2] it was 100%; in the assay with EPHHL [3], 100%; in the assay with IPOHE [4], 80%; with LOLPE [5] it was 90%; in the assay on SETFA [6], 100%. For the same molecule, the pest or weed control at 250 g/ha in the assay with AMAPA [7], with CHEAL, in the assay on DIGSA, in the assay with ECHCG [8], with ELEIN and in the assay on EPHHL [9] was 100% in each case. For the same molecule, the pest or weed control at 250 g/ha in the assay with IPOHE [10], in the assay with LOLPE [11] and in the assay on SETFA [12] was 100% throughout.

As for `CCOC(=O)C1(C)CC(c2cc(-c3ncc(C#N)cc3Cl)c(F)cc2Cl)=NO1` (stereo not drawn) [Compound 1-607, Ethyl 3-[2-chloro-5-(3-chloro-5-cyano-2-pyridyl)-4-fluoro-phenyl]-5-methyl-4H-isoxazole-5-carboxylate], the pest or weed control at 250 g/ha in the assay with AMAPA [1] was determined as 100%; in the assay with ECHCG [2], 70%; in the assay with EPHHL [3] it was 50%; in the assay with IPOHE [4], 30%; in the assay with LOLPE [5], 20%; with SETFA [6] it was 10%. For the same molecule, the pest or weed control at 250 g/ha is 100% in the assay with AMAPA [7]; 100% with CHEAL; 70% in the assay with DIGSA; 40% in the assay on ECHCG [8]; 60% in the assay with ELEIN; 100% with EPHHL [9]. Also, the pest or weed control at 250 g/ha with IPOHE [10] came to 100%; with LOLPE [11] it was 70%; in the assay with SETFA [12], 80%.

`CCOC(=O)C1(C)CC(c2cc(-c3ncc(C(C)=O)cc3Cl)c(F)cc2Cl)=NO1` (stereo not drawn) [Compound 1-631, Ethyl 3-[5-(5-acetyl-3-chloro-2-pyridyl)-2-chloro-4-fluoro-phenyl]-5-methyl-4H-isoxazole-5-carboxylate]: the pest or weed control at 250 g/ha in the assay with AMAPA [1], with ECHCG [2], with EPHHL [3], in the assay with IPOHE [4], in the assay with LOLPE [5] and in the assay on SETFA [6] was 0% throughout. The pest or weed control at 250 g/ha with AMAPA [7] was found to be 10%; in the assay with CHEAL, 20%; in the assay with DIGSA, 30%; with ECHCG [8] it was 40%; in the assay with ELEIN, 10%; with EPHHL [9] it was 20%. In addition, the pest or weed control at 250 g/ha with IPOHE [10] worked out at 40%; in the assay with LOLPE [11], 0%; with SETFA [12], 10%.

Take `CCOC(=O)C1(C)CC(c2cc(-c3ncc(S(C)(=O)=O)cc3Cl)c(F)cc2Cl)=NO1` (stereo not drawn) [Compound 1-643, Ethyl 3-[2-chloro-5-(3-chloro-5-methylsulfonyl-2-pyridyl)-4-fluoro-phenyl]-5-methyl-4H-isoxazole-5-carboxylate]: the pest or weed control at 250 g/ha in the assay with AMAPA [1], with ECHCG [2], with EPHHL [3], with IPOHE [4], with LOLPE [5] and with SETFA [6] was 100% throughout. In addition, the pest or weed control at 250 g/ha in the assay on AMAPA [7], in the assay with CHEAL, in the assay on DIGSA, in the assay on ECHCG [8], in the assay with ELEIN and in the assay with EPHHL [9] was 100% in each case. For the same molecule, the pest or weed control at 250 g/ha with IPOHE [10], with LOLPE [11] and with SETFA [12] was 100% each time.

`CCOC(=O)C1(C)CC(c2cc(-c3ccc(C(F)(F)F)nc3Cl)c(F)cc2Cl)=NO1` (stereo not drawn) [Compound 1-655, Ethyl 3-[2-chloro-5-[2-chloro-6-(trifluoromethyl)-3-pyridyl]-4-fluoro-phenyl]-5-methyl-4H-isoxazole-5-carboxylate]: the pest or weed control at 250 g/ha in the assay on AMAPA [1] amounted to 100%; in the assay on ECHCG [2], 40%; in the assay with EPHHL [3], 90%; in the assay on IPOHE [4] it was 40%; with LOLPE [5], 40%; with SETFA [6] it was 30%. The pest or weed control at 250 g/ha is 100% in the assay with AMAPA [7]; 100% in the assay on CHEAL; 70% with DIGSA; 90% in the assay on ECHCG [8]; 80% in the assay with ELEIN; 100% with EPHHL [9]. The pest or weed control at 250 g/ha in the assay with IPOHE [10] turned out to be 100%; in the assay on LOLPE [11], 80%; in the assay on SETFA [12], 90%.
